Measured values taken from PubChem BioAssay AID1963846 (Molecular Pharmacology Branch, DTP, NCI, 2024).
pIC50: −log10 of the molar value.

Tested on: 454973-116-R2-J3-PDC complex spheroid viability
Test: Anticancer human tumor 454973-116-R2-J3-PDC patient-derived pancreatic carcinoma cell line growth inhibition [POLQ]
Details: for pIC50: curve of first compound; for viability, T/C: stronger effect = lower value
In short: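 Three-cell-type spheroids modelling solid tumor plus stroma served as the readout system; POL inhibitors were tested individually and in combination, concentration ranges set by clinical Cmax where known.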

[1] = second compound 0.0316 µM, first compound 0.0316 µM
[2] = second compound 0.0316 µM, first compound 0.1 µM
[3] = second compound 0.0316 µM, first compound 0.316 µM
[4] = second compound 0.0316 µM, first compound 1 µM
[5] = second compound 0.0316 µM, first compound 3.16 µM
[6] = second compound 0.0316 µM, first compound 10 µM
[7] = second compound 0.1 µM, first compound 0.0316 µM
[8] = second compound 0.1 µM, first compound 0.1 µM
[9] = second compound 0.1 µM, first compound 0.316 µM
[10] = second compound 0.1 µM, first compound 1 µM
[11] = second compound 0.1 µM, first compound 3.16 µM
[12] = second compound 0.1 µM, first compound 10 µM
[13] = second compound 0.316 µM, first compound 0.0316 µM
[14] = second compound 0.316 µM, first compound 0.1 µM
[15] = second compound 0.316 µM, first compound 0.316 µM
[16] = second compound 0.316 µM, first compound 1 µM
[17] = second compound 0.316 µM, first compound 3.16 µM
[18] = second compound 0.316 µM, first compound 10 µM
[19] = second compound 1 µM, first compound 0.0316 µM
[20] = second compound 1 µM, first compound 0.1 µM
[21] = second compound 1 µM, first compound 0.316 µM
[22] = second compound 1 µM, first compound 1 µM
[23] = second compound 1 µM, first compound 3.16 µM
[24] = second compound 1 µM, first compound 10 µM
[25] = second compound 3.16 µM, first compound 0.0316 µM
[26] = second compound 3.16 µM, first compound 0.1 µM
[27] = second compound 3.16 µM, first compound 0.316 µM
[28] = second compound 3.16 µM, first compound 1 µM
[29] = second compound 3.16 µM, first compound 3.16 µM
[30] = second compound 3.16 µM, first compound 10 µM
[31] = second compound 10 µM, first compound 0.0316 µM
[32] = second compound 10 µM, first compound 0.1 µM
[33] = second compound 10 µM, first compound 0.316 µM
[34] = second compound 10 µM, first compound 1 µM
[35] = second compound 10 µM, first compound 3.16 µM
[36] = second compound 10 µM, first compound 10 µM
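Also: spheroids exposed to drugs for seven days before measurement.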
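For viability, T/C in this document: percent viability relative to DMSO vehicle control wells taken as 100%.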

For `CC(C)n1c(=O)n(C)c2cnc3cc(F)c(-c4ccc(OCCCN5CCCCC5)nc4)cc3c21` + Cc1cccc(N(C)C(=O)C2C(O)CCN2c2nc(C)cc(C(F)(F)F)c2C#N)c1, the pIC50 (second compound 0.0316 µM) was < 5.00, the pIC50 (second compound 0.1 µM) was < 5.00 and the pIC50 (second compound 0.316 µM) was < 5.00. For the same compound, the pIC50 (second compound 1 µM) was < 5.00, the pIC50 (second compound 3.16 µM) was < 5.00 and the pIC50 (second compound 10 µM) was < 5.00. For the same compound, the viability, T/C [1] was 97.4%, the viability, T/C [2] was 96.4% and the viability, T/C [3] was 103%. The viability, T/C [4] was 99.7%, the viability, T/C [5] was 105% and the viability, T/C [6] was 77.2%. For the same compound, the viability, T/C [7] was 97.3%, the viability, T/C [8] was 105% and the viability, T/C [9] was 101%. The viability, T/C [10] was 113%, the viability, T/C [11] was 107% and the viability, T/C [12] was 85%. The viability, T/C [13] was 105%, the viability, T/C [14] was 110% and the viability, T/C [15] was 114%. The viability, T/C [16] was 104%, the viability, T/C [17] was 97.1% and the viability, T/C [18] was 86.8%. For the same compound, the viability, T/C [19] was 103%, the viability, T/C [20] was 105% and the viability, T/C [21] was 110%. For the same compound, the viability, T/C [22] was 116%, the viability, T/C [23] was 104% and the viability, T/C [24] was 87.3%. The viability, T/C [25] was 109%, the viability, T/C [26] was 106% and the viability, T/C [27] was 108%. The viability, T/C [28] was 99.3%, the viability, T/C [29] was 101% and the viability, T/C [30] was 86%. For the same compound, the viability, T/C [31] was 114%, the viability, T/C [32] was 110% and the viability, T/C [33] was 96.6%. For the same compound, the viability, T/C [34] was 98.6%, the viability, T/C [35] was 97.3% and the viability, T/C [36] was 79%.
With `CCc1cc2c(N3CCc4c(cc(Cn5ccnc5)cc4-c4cn(C)nc4C(F)(F)F)C3=O)cc(C)nc2c(OC)n1` + Cc1cccc(N(C)C(=O)C2C(O)CCN2c2nc(C)cc(C(F)(F)F)c2C#N)c1 the pIC50 (second compound 0.0316 µM) was < 5.00, the pIC50 (second compound 0.1 µM) was < 5.00 and the pIC50 (second compound 0.316 µM) was < 5.00. The pIC50 (second compound 1 µM) was < 5.00, the pIC50 (second compound 3.16 µM) was < 5.00 and the pIC50 (second compound 10 µM) was < 5.00. The viability, T/C [1] was 94.7%, the viability, T/C [2] was 84.6% and the viability, T/C [3] was 87.3%. For the same compound, the viability, T/C [4] was 75.5%, the viability, T/C [5] was 76.5% and the viability, T/C [6] was 56.9%. The viability, T/C [7] was 92.7%, the viability, T/C [8] was 99.2% and the viability, T/C [9] was 80.7%. The viability, T/C [10] was 80.1%, the viability, T/C [11] was 74.6% and the viability, T/C [12] was 60.8%. The viability, T/C [13] was 93.6%, the viability, T/C [14] was 84.5% and the viability, T/C [15] was 87.7%. For the same compound, the viability, T/C [16] was 76.9%, the viability, T/C [17] was 76.3% and the viability, T/C [18] was 61.6%. The viability, T/C [19] was 100%, the viability, T/C [20] was 94% and the viability, T/C [21] was 78.4%. The viability, T/C [22] was 73.6%, the viability, T/C [23] was 70.4% and the viability, T/C [24] was 58.6%. For the same compound, the viability, T/C [25] was 104%, the viability, T/C [26] was 89.3% and the viability, T/C [27] was 84.1%. The viability, T/C [28] was 74.7%, the viability, T/C [29] was 74.4% and the viability, T/C [30] was 63.8%. The viability, T/C [31] was 88.5%, the viability, T/C [32] was 90.2% and the viability, T/C [33] was 74.9%. For the same compound, the viability, T/C [34] was 71.5%, the viability, T/C [35] was 64.9% and the viability, T/C [36] was 53.2%.
In the case of `CCc1cc2c(N3CCc4c(cc(Cn5ccnc5)cc4-c4cn(C)nc4C(F)(F)F)C3=O)ccnc2c(OC)n1` + Cc1cccc(N(C)C(=O)C2C(O)CCN2c2nc(C)cc(C(F)(F)F)c2C#N)c1, the pIC50 (second compound 0.0316 µM) was < 5.00, the pIC50 (second compound 0.1 µM) was < 5.00 and the pIC50 (second compound 0.316 µM) was < 5.00. The pIC50 (second compound 1 µM) was < 5.00, the pIC50 (second compound 3.16 µM) was < 5.00 and the pIC50 (second compound 10 µM) was < 5.00. The viability, T/C [1] was 89.3%, the viability, T/C [2] was 86.2% and the viability, T/C [3] was 93.7%. For the same compound, the viability, T/C [4] was 77.8%, the viability, T/C [5] was 82.2% and the viability, T/C [6] was 62%. For the same compound, the viability, T/C [7] was 102%, the viability, T/C [8] was 86% and the viability, T/C [9] was 82%. For the same compound, the viability, T/C [10] was 85.9%, the viability, T/C [11] was 69.3% and the viability, T/C [12] was 62.1%. For the same compound, the viability, T/C [13] was 94%, the viability, T/C [14] was 89% and the viability, T/C [15] was 84.4%. It also gave a viability, T/C [16] of 83.4%, a viability, T/C [17] of 74% and a viability, T/C [18] of 61.5%. For the same compound, the viability, T/C [19] was 95.2%, the viability, T/C [20] was 85.2% and the viability, T/C [21] was 96%. It also gave a viability, T/C [22] of 78.4%, a viability, T/C [23] of 80.8% and a viability, T/C [24] of 61.7%. The viability, T/C [25] was 97.8%, the viability, T/C [26] was 97.8% and the viability, T/C [27] was 91.2%. For the same compound, the viability, T/C [28] was 74%, the viability, T/C [29] was 72.2% and the viability, T/C [30] was 57.3%. It also gave a viability, T/C [31] of 91.3%, a viability, T/C [32] of 87.5% and a viability, T/C [33] of 72.1%. It also gave a viability, T/C [34] of 74%, a viability, T/C [35] of 70.3% and a viability, T/C [36] of 55.8%.
In the case of `COc1cc2cc(C(=O)CCC(=O)O)sc2cc1OC` + Cc1cccc(N(C)C(=O)C2C(O)CCN2c2nc(C)cc(C(F)(F)F)c2C#N)c1, the pIC50 (second compound 0.0316 µM) was < 5.00, the pIC50 (second compound 0.1 µM) was < 5.00 and the pIC50 (second compound 0.316 µM) was < 5.00. For the same compound, the pIC50 (second compound 1 µM) was < 5.00, the pIC50 (second compound 3.16 µM) was < 5.00 and the pIC50 (second compound 10 µM) was < 5.00. The viability, T/C [1] was 103%, the viability, T/C [2] was 107% and the viability, T/C [3] was 107%. For the same compound, the viability, T/C [4] was 102%, the viability, T/C [5] was 106% and the viability, T/C [6] was 97%. For the same compound, the viability, T/C [7] was 105%, the viability, T/C [8] was 98.1% and the viability, T/C [9] was 95.7%. The viability, T/C [10] was 98%, the viability, T/C [11] was 92.6% and the viability, T/C [12] was 88.7%. It also gave a viability, T/C [13] of 93.8%, a viability, T/C [14] of 104% and a viability, T/C [15] of 96.2%. For the same compound, the viability, T/C [16] was 110%, the viability, T/C [17] was 109% and the viability, T/C [18] was 93.7%. For the same compound, the viability, T/C [19] was 105%, the viability, T/C [20] was 102% and the viability, T/C [21] was 99%. It also gave a viability, T/C [22] of 102%, a viability, T/C [23] of 105% and a viability, T/C [24] of 93.7%. It also gave a viability, T/C [25] of 103%, a viability, T/C [26] of 97.9% and a viability, T/C [27] of 96.5%. For the same compound, the viability, T/C [28] was 100%, the viability, T/C [29] was 98.9% and the viability, T/C [30] was 95.5%. It also gave a viability, T/C [31] of 97.7%, a viability, T/C [32] of 98.8% and a viability, T/C [33] of 94%. For the same compound, the viability, T/C [34] was 111%, the viability, T/C [35] was 102% and the viability, T/C [36] was 90.8%.
For `COc1ccc([C@@H](O)c2cc(-c3ncnc4cc(N5CCOCC5)ccc34)c(F)cc2Cl)nn1` + Cc1cccc(N(C)C(=O)C2C(O)CCN2c2nc(C)cc(C(F)(F)F)c2C#N)c1, the pIC50 (second compound 0.0316 µM) was < 5.00, the pIC50 (second compound 0.1 µM) was < 5.00 and the pIC50 (second compound 0.316 µM) was < 5.00. The pIC50 (second compound 1 µM) was < 5.00, the pIC50 (second compound 3.16 µM) was < 5.00 and the pIC50 (second compound 10 µM) was < 5.00. The viability, T/C [1] was 105%, the viability, T/C [2] was 114% and the viability, T/C [3] was 101%. The viability, T/C [4] was 92.5%, the viability, T/C [5] was 70.2% and the viability, T/C [6] was 56.4%. It also gave a viability, T/C [7] of 104%, a viability, T/C [8] of 99% and a viability, T/C [9] of 102%. The viability, T/C [10] was 95.5%, the viability, T/C [11] was 71.1% and the viability, T/C [12] was 58%. For the same compound, the viability, T/C [13] was 107%, the viability, T/C [14] was 99.8% and the viability, T/C [15] was 103%. The viability, T/C [16] was 91.8%, the viability, T/C [17] was 76.2% and the viability, T/C [18] was 55%. It also gave a viability, T/C [19] of 109%, a viability, T/C [20] of 105% and a viability, T/C [21] of 107%. It also gave a viability, T/C [22] of 87.1%, a viability, T/C [23] of 71.5% and a viability, T/C [24] of 53.3%. The viability, T/C [25] was 112%, the viability, T/C [26] was 101% and the viability, T/C [27] was 108%. For the same compound, the viability, T/C [28] was 87.7%, the viability, T/C [29] was 74.7% and the viability, T/C [30] was 58.4%. The viability, T/C [31] was 112%, the viability, T/C [32] was 99.9% and the viability, T/C [33] was 99.3%. The viability, T/C [34] was 84.5%, the viability, T/C [35] was 64.7% and the viability, T/C [36] was 59.8%.
